Experimental data taken from patent US20020188010A1, “Compositions of matter containing L-glutamine and pyridoxal-alpha-ketoglutarate” (priority 2001, published 2002).

Assays:
IBS (6 yrs duration) = experiment: Improvement of IBS in patients given L-glutamine alone or L-glutamine/PAK; assay type: in vivo
Source text: (§1) [table] While the compositions of the invention have been tested on patients suffering from disorders affecting the intestinal mucosa, the methods of the invention are appropriate for use in treating other diseases wherein stimulation of cell growth or repair of cells with natural rapid turn-over is desirable. Such diseases include, but are not limited to, leaky gut syndrome and other diseases of maldigestion, chronic fatigue syndrome, fibromyalgia, diabetes, thyroiditis and chronic viral disease. The combination therapy described herein will, by enhancing the growth and the repair of intestinal cells, increase the ability of the intestinal wall to reject and neutralize parasites and inhibit overgrowth of fungal organisms.

Ileitis (9 yrs duration) = experiment: Improvement of ileitis in patients given L-glutamine alone or L-glutamine/PAK; assay type: in vivo
Source text: as §1

NC(=O)CC[C@H](N)C(=O)O [L-glutamine]
percent of improvement upon administration of the L-glutamine alone (IBS (6 yrs duration); dose 3 gm L-glutamine): none | percent of improvement upon administration of the L-glutamine alone (IBS (6 yrs duration); dose 15 gm L-glutamine): 25% | percent of improvement upon administration of the L-glutamine alone (IBS (6 yrs duration); dose 30 gm L-glutamine): 45% | percent of improvement upon administration of the L-glutamine alone (IBS (6 yrs duration); dose 60 gm L-glutamine): 85% | percent of improvement upon administration of the L-glutamine alone (Ileitis (9 yrs duration); dose 3 gm L-glutamine): 5% | percent of improvement upon administration of the L-glutamine alone (Ileitis (9 yrs duration); dose 15 gm L-glutamine): 20% | percent of improvement upon administration of the L-glutamine alone (Ileitis (9 yrs duration); dose 30 gm L-glutamine): 50% | percent of improvement upon administration of the L-glutamine alone (Ileitis (9 yrs duration); dose 60 gm L-glutamine): 90%
